According to US20040235922A1, “Compositions and methods for inducing adipose tissue cell death” (priority 2003, published 2004):
“Also recorded” adds a separate entry of the source. Marks after values point to notes of the source that are not given here.

Legend:
brain and liver = details: in vivo; cited from earlier work
[1] = Body composition analysis by PIXImus densitometry in WT and GDF-8 KO mice (Example 2); format: in vivo; details: 200 ppm in diet, 21 days
male and female ICR mice = experiment: 21 day oral (diet) treatment of mice: selected tissue weights, fat pads, BAT, muscle, organs (Example 1); format: in vivo; details: 21 days; for Brown adipose tissue (BAT) mass compared to control/other treatments: 200 ppm clenbuterol in diet; for Brown adipose tissue (BAT) mass compared to control/other treatments / Rp and Epi/Par fat pad weights compared to control: p<0.05; for Rp and Epi/Par fat pad weights compared to control: 200 ppm clenbuterol, 800 ppm ractopamine in diet
Experimental: (§1) The effects of clenbuterol, a β2-AR agonist, and ractopamine, a β1/β2-AR agonist, on growth, adiposity and adipose tissue apoptosis in male and female mice have been tested by feeding diets containing control, 200 ppm clenbuterol, or 200 or 800 ppm ractopamine. Food intake (FI) was measured daily; body weight (BW) and temperatures (BT) were measured on days 0, 3, 7, 10, 14, 17, and 20. On day 21 mice were sacrificed, body composition was determined using PIXImus densitometry, and muscle and adipose tissues were collected. There were no treatment effects on BT, FI, BW, feed efficiency or body composition. Retroperitoneal (Rp) and epididymal/parametrial (Epi/Par) fat pad masses were reduced in both 800 ppm ractopamine (40±3 and 207±20 mg, respectively) and clenbuterol (35±7 and 211±22 mg) treated mice compared to control (66±8 and 319±30 mg, p<0.05). Brown adipose tissue (BAT) mass was greater (p<0.05) in clenbuterol treated mice compared to other treatments. Adipose tissue apoptosis (% DNA fragmentation) was increased in Epi/Par fat pads in clenbuterol (5.2+1.1%) and 800 ppm ractopamine (4.1±0.8%) treated mice compared to control (1.7+0.4%, p<0.05).
(§2) Animals: Five week old male (n=20) and female (n=20) ICR mice (Harlan Research Laboratories, Indianapolis, Ind.) were allowed to acclimate for one week prior to the experiment start date. Animals were housed singly in suspended wire cages and were provided ground rodent chow (ProLab® RMH 2500; Purina Mills, St. Louis, Mo.) and water ad libitum. Ambient room temperature was maintained and the light/dark cycle was 0600/1800 hours, respectively. Animals were cared for in accordance with the Guide for the Care and Use of Laboratory Animals (Institute of Laboratory Animal Resources Commission on Life Sciences National Research Council. Guide for the Care and Use of Laboratory Animals. National Academy of Sciences, 1996). Prior to the start of the study, animals were briefly anesthetized with isofluorane and an IPPT-200 transponder (programmable ID and temperature, BMDS, Seaford, Del.) was implanted subcutaneously between the scapulae.
Materials: Test articles included clenbuterol (Sigma Chemical Company, St. Louis, Mo., item # C5423) and ractopamine hydrochloride—Paylean® 9 (Elanco Animal Health, Indianapolis, Ind.). Clenbuterol is available as a pure product, and ractopamine is readily available as a type A medicated article. Paylean® 9 contains about 20 g ractopamine hydrochloride per kilogram in a ground corncob base. In order to achieve doses of 200 and 800 ppm it was necessary to add about […] of product per kilogram of diet. Control and clenbuterol diets were prepared with about 80 g of alphacel, which is a diluent used to mimic the effect of the corncob in the ractopamine product. The dose of clenbuterol used in this experiment was similar to those used in previous experiments with mice (Agbenyega E T, and Wareham A C. Effect of clenbuterol on skeletal muscle atrophy in mice induced by the glucocorticoid dexamethasone. Comp Biochem Physiol Comp Physiol 1992;102:141-145, Rothwell N. J., and Stock M J. Modification of body composition by clenbuterol in normal and dystrophic (mdx) mice. Biosci Rep 1985;5:755-760, Hyltander A, Svaninger G, and Lundholm K. The effect of clenbuterol on body composition in spontaneously eating tumour-bearing mice. Biosci Rep 1993;13:325-331, Hayes A, and Williams DA. Long-term clenbuterol administration alters the isometric contractile properties of skeletal muscle from normal and dystrophin-deficient mdx mice. Clin Exp Pharmacol Physiol 1994;21:757-765, Dupont-Versteegden EE. Exercise and clenbuterol as strategies to decrease the progression of muscular dystrophy in mdx mice. J Appl Physiol 1996;80:734-741). […]

mouse adipocytes = details: in vitro; cited from earlier work
[2] = 21 day oral (diet) treatment of mice: body weight, food intake, feed efficiency, body temperature, body composition by PIXImus densitometry (Example 1); format: in vivo; details: 21 days, ICR mice
Experimental: as §1, §2
Materials: Test articles included clenbuterol (Sigma Chemical Company, St. Louis, Mo., item # C5423) and ractopamine hydrochloride—Paylean® 9 (Elanco Animal Health, Indianapolis, Ind.). Clenbuterol is available as a pure product, and ractopamine is readily available as a type A medicated article. Paylean® 9 contains about 20 g ractopamine hydrochloride per kilogram in a ground corncob base. In order to achieve doses of 200 and 800 ppm it was necessary to add about […] of product per kilogram of diet. Control and clenbuterol diets were prepared with about 80 g of alphacel, which is a diluent used to mimic the effect of the corncob in the ractopamine product. The dose of clenbuterol used in this experiment was similar to those used in previous experiments with mice (Agbenyega E T, and Wareham A C. Effect of clenbuterol on skeletal muscle atrophy in mice induced by the glucocorticoid dexamethasone. Comp Biochem Physiol Comp Physiol 1992;102:141-145, Rothwell N. J., and Stock M J. Modification of body composition by clenbuterol in normal and dystrophic (mdx) mice. Biosci Rep 1985;5:755-760, Hyltander A, Svaninger G, and Lundholm K. The effect of clenbuterol on body composition in spontaneously eating tumour-bearing mice. Biosci Rep 1993;13:325-331, Hayes A, and Williams DA. Long-term clenbuterol administration alters the isometric contractile properties of skeletal muscle from normal and dystrophin-deficient mdx mice. Clin Exp Pharmacol Physiol 1994;21:757-765, Dupont-Versteegden EE. Exercise and clenbuterol as strategies to decrease the progression of muscular dystrophy in mdx mice. J Appl Physiol 1996;80:734-741).
Daily Observations: Food intake was measured daily, while body weight and body temperatures were measured on days 0, 3, 7, 10, 14, 17, and 20 at approximately the same time of day (1300 hours) during the treatment period. […]

[3] = WT and GDF-8 KO mice, Mean ± SEM
[4] = 200 ppm in diet, male and female mice

Q: With `CC(C)(C)NCC(O)c1cc(Cl)c(N)c(Cl)c1` (stereo not drawn) [Clenbuterol, clenbuterol] as the molecule, how does the “Apoptosis in brain and liver” value (brain and liver) read?
A: protect against apoptosis

Q: What about the “% Fat” value [1, 3] of the same molecule?
A: 15.7 ± 1.0%

Q: What about the “Bone Mineral Content” value [1, 3] of the same molecule?
A: 0.52 ± 0.02 g

Q: What about the “Bone Mineral Density” value [1, 3] of the same molecule?
A: 0.06 ± 0.001 g

Q: What about the Fat [1, 3] of the same molecule?
A: 4.1 ± 0.2 g

Q: What about the Lean [1, 3] of the same molecule?
A: 22.7 ± 1.1 g

Q: What about the “Effect on BMD, BMC, area, lean weight, fat weight, or fat %” value ([1]; main effects) of the same molecule?
A: no effect

Q: What about the “Brown adipose tissue (BAT) mass compared to control/other treatments” value (male and female ICR mice) of the same molecule?
A: increased BAT mass

Q: And the “Brown adipose tissue (BAT) mass compared to control/other treatments” value (male and female ICR mice; listed as clenbuterol)?
A: greater; also recorded: significantly increased

Q: What about the “Rp and Epi/Par fat pad weights compared to control” value (male and female ICR mice) of the same molecule?
A: decreased mass of Rp and Epi/Par fat pads in females only

Q: And the “Rp and Epi/Par fat pad weights compared to control” value (male and female ICR mice; listed as clenbuterol)?
A: reduced

Q: And the “BAT tissue weight, mean” value (male and female ICR mice; [4])?
A: .124

Q: What about the “Biceps tissue weight, mean” value (male and female ICR mice; [4]) of the same molecule?
A: .145

Q: And the “Epi/Par tissue weight, mean” value (male and female ICR mice; [4])?
A: .211

Q: And the “Heart tissue weight, mean” value (male and female ICR mice; [4])?
A: .164

Q: What about the “Ing tissue weight, mean” value (male and female ICR mice; [4]) of the same molecule?
A: .150

Q: What about the “Kidney tissue weight, mean” value (male and female ICR mice; [4]) of the same molecule?
A: .582

Q: What about the “Liver tissue weight, mean” value (male and female ICR mice; [4]) of the same molecule?
A: 2.14

Q: What about the “Rp tissue weight, mean” value (male and female ICR mice; [4]) of the same molecule?
A: .035

Q: And the “Retroperitoneal (Rp) fat pad mass” value (male and female ICR mice; 200 ppm in diet, mice, control 66±8 mg)?
A: 35 ± 7 mg

Q: What about the “Epididymal/parametrial (Epi/Par) fat pad mass” value (male and female ICR mice; 200 ppm in diet, mice, control 319±30 mg) of the same molecule?
A: 211 ± 22 mg

Q: And the “Muscle mass / muscle weight, body protein or fat content” value (male and female ICR mice; diet, ICR mice)?
A: no effect

Q: And the “Par weight, mean” value (male and female ICR mice; females, 200 ppm in diet)?
A: .18^b

Q: And the “Epi weight, mean” value (male and female ICR mice; males, 200 ppm in diet)?
A: .24^ab

Q: What about the “Insulin binding to mouse adipocytes” value (mouse adipocytes) of the same molecule?
A: decreased

Q: What about the “Cumulative Feed Intake” value ([2]; 200 ppm in diet) of the same molecule?
A: 6.10 g

Q: And the “Densitometry Bone Mineral Content” value ([2]; 200 ppm in diet)?
A: 0.65 g

Q: What about the “Densitometry Fat” value ([2]; 200 ppm in diet) of the same molecule?
A: 2.81 g

Q: What about the “Densitometry Lean” value ([2]; 200 ppm in diet) of the same molecule?
A: 26.80 g

Q: What about the “Feed Efficiency” value ([2]; 200 ppm in diet) of the same molecule?
A: 14.4

Q: And the “Final Body Weight” value ([2]; 200 ppm in diet)?
A: 32.1 g

Q: And the “Weight Gain” value ([2]; 200 ppm in diet)?
A: 8.90 g

Q: What about the “Effect on body temperature, food intake, body weight, feed efficiency, body composition” value ([2]; diet) of the same molecule?
A: not significantly affected; also recorded: Neither clenbuterol nor ractopamine affected
